| melting point | Structure (SMILES) |
| --- | --- |
| 114 to 115 °C | CCOc1ccc(N/C=C(\C(=O)Nc2ccccc2)c2cc(C)no2)cc1 [Example 3, α-[[(4-Ethoxyphenyl)amino]methylene]-3-methyl-N-phenyl-5-isoxazoleacetamide] |
| 179 to 180 °C | Cc1cc(/C(=C/Nc2ccc(Cl)cc2)C(=O)Nc2ccc(Cl)cc2)no1 [Example 8, N-(4-Chlorophenyl)-α-[[4-(chlorophenyl)amino]methylene]-5-methyl-3-isoxazoleacetamide] |
